One test concerns Two-Spotted Spider Mite. Briefly: Biological Method D: Foliar Insecticidal Activity Test, mite test. As to all read-outs here: key: I = Inactive at Rate Tested. The test is classed as in vivo, Tetranychus urticae. The note with it: foliar spray, kill after twenty-four hours; for LC50: Tetranychus urticae, 24 h, read-out: TSM LC50. As to the method:
(§1) Biological Method D: Foliar Insecticidal Activity Test
(§2) In evaluating the foliar insecticidal activity of the compounds of this invention against insects and mites, the following test procedures were employed.
(§3) Not all compounds were tested at each of the several concentrations stated above. Test concentrations of a compound were selected as those most likely to differentiate dose response of a particular compound toward a particular test insect.
(§4) Initial evaluations were made on one or more of the following pests:
For the mite test, infested bean (Phaseolus limensis var. Woods Prolific) leaf discs [3.18 cm (1.25") in diameter] containing about 50 mites were placed in a Petri dish lid on a moistened piece of cotton. The leaves were then sprayed to thorough wetness with the test solution using a rotating turntable, held for twenty-four hours and then the percentage killed was determined.
(§5) The mortalities obtained in this manner were plotted on logarithmic probability paper.
(§6) The rotating turntable consists of a fixed, continuously operating spray nozzle under which targets are rotated at a fixed speed and distance. If the target is a Petri dish (such as for the bean beetle, armyworm, mite, or aphid tests), the distance from the nozzle is 38.1 cm (15 inches). If the target is a Mason jar (such as for the boll weevil test), the distance from the nozzle is 17.8 cm (7 inches). The nozzle is located 8 inches from the rotating shaft. The targets on individual platforms revolve around the shaft at 1 revolution per 20 seconds but only a brief portion of this time occurs in the spray path. Targets pass only once under the nozzle and then are removed to drying hoods.
(§7) The nozzle used is a 1/4 JCO Spraying Systems (Wheaton, Illinois) air atomizing nozzle equipped with a No. 2850 fluid cap and a No. 70 air cap. At the 68.95 x 10³ Pa gauge (10 psig) air pressure used and with liquid siphon feed, 1.89 ℓ/hr [0.5 GPH (gallons per hour)] are delivered in a round spray pattern with a 21 degree spray angle. Targets are misted with spray droplets to the point that the droplets coalesce to form a uniform thin film insufficient to drown test organisms.

The test system of a further test is Green Peach Aphid. Put plainly: Biological Method D: Foliar Insecticidal Activity Test, aphid test. Also: key: I = Inactive at Rate Tested. The note with it: foliar spray; kill after twenty-four hours. The test is classed as in vivo, Myzus persicae. As to the method: as §1, §2, §3, §4
For the aphid test, infested broccoli (Brassica oleracea italica var. DiCicco) leaves containing about 50 aphids were placed in a Petri dish lid on a moistened piece of cotton. The leaves were then sprayed to thorough wetness with the test solution using a rotating turntable, held for twenty-four hours and then the percentage killed was determined.
as §5, §6, §7

The next test concerns Mexican Bean Beetle. Briefly: Biological Method D: Foliar Insecticidal Activity Test, Mexican Bean Beetle test. The class given is in vivo, Epilachna varivestis. The note with it: Epilachna varivestis, foliar spray. As to the method: as §1, §2, §3, §4
(§8) For the Mexican Bean Beetle and Southern armyworm tests, individual lima bean (Phaseolus limeniss var. Woods' Prolific) leaves were placed on moistened pieces of filter paper in Petri dishes. The leaves were then sprayed with the test solution using a rotating turntable and allowed to dry. The dishes were then infested with 10 third instar larvae of either the Mexican Been Beetle or the Southern Armyworm. The dishes were then covered. Percent mortality was determined for each species and spray concentration at 48 and 96 hours after treatment.
as §5, §6, §7

The test system of a further test is Southern Armyworm. Briefly: Biological Method D: Foliar Insecticidal Activity Test, Southern Armyworm test. As to all read-outs here: key: I = Inactive at Rate Tested. The note with it: foliar spray; for AW 48 hrs LC50: 48 hours after treatment; for AW 96 hrs LC50: 96 hours after treatment. The test is classed as in vivo, Spodoptera eridania. As to the method: as §1, §2, §3, §4, §8, §5, §6, §7
The next test deals with Boll Weevil. Put plainly: Biological Method D: Foliar Insecticidal Activity Test, boll weevil test. The test is classed as in vivo, Anthonomous grandis. The note with it: spray into jar. As for the experimental part:
as §1, §2, §3, §4
For the boll weevil test, 10 adult weevils were placed in a 0.24 ℓ (0.5 pint) glass Mason jar containing a small cube of apple. The weevils were confined to the jar by fiberglass screen mesh secured by a screw-type rim cap. The jars were then sprayed with the test solution using a rotating turntable; directing the spray through the mesh into the jar. The percentage killed was determined after forty-eight and ninety six hours.
as §5, §6, §7

Test [1] has as its system southern corn rootworm, Diabrotica undecimpunctata howardi. Briefly: Biological Method A: Corn Rootworm Screening Test (treated non-aggressive soil). The note with it: soil concentration giving 90% mortality, 10 days at 27°C.
[2] abbreviates: 48 hours after treatment, read-out: BB 48 hrs. LC50.
[3] abbreviates: 96 hours after treatment, read-out: BB 96 hrs LC50.

Data on 8 compounds can be found in patent EP0437336B1, “Biophosphoryl hydrazines and their use as pesticides” (priority 1990, dated 1991).

≈ marks a conversion by molar mass, not a printed value. Like-named read-outs stand apart in the source and are kept apart here.

For the compound `CCOP(=S)(NNP(=S)(OCC)N(C)CC)OCC` (centres unmarked) [Compound 75], the LC50 (usually the concentration lethal to half of the exposed cells or organisms) with Two-Spotted Spider Mite came to 150 µg/mL (≈ 429 µM); in the test with Mexican Bean Beetle (setting [2]), 500 µg/mL (≈ 1430 µM); in the test on Mexican Bean Beetle (setting [3]), 150 µg/mL (≈ 429 µM). Also, the “GPA LC50” value in the test with Green Peach Aphid is reported as “I”. Besides, in the test on Southern Armyworm, the “AW 48 hrs LC50” value was “I”. Also, the “AW 96 hrs LC50” value with Southern Armyworm is listed as “I”. The “BW 48 hrs LC50” value in the test on Boll Weevil is listed as “I”. Also, the “BW 96 hrs LC50” value in the test on Boll Weevil is given as “I”. The “primary nonagressive Method A crw LC90” value in test [1] came to 1.1 ppm.
On to `CCCOP(=S)(NNP(=S)(OCC)OC(C)(C)C(F)(F)F)OCC` (centres unmarked) [Compound 69], for which the LC50 in the test with Two-Spotted Spider Mite was 360 µg/mL (≈ 833 µM). Besides, in the test with Green Peach Aphid, the “GPA LC50” value was “I”. Also, the LC50 with Mexican Bean Beetle (setting [2]) came to 500 µg/mL (≈ 1160 µM). In addition, the LC50 with Mexican Bean Beetle (setting [3]) was determined as 62 µg/mL (≈ 143 µM). For the same compound, in the test on Southern Armyworm, the “AW 48 hrs LC50” value is on record as “I” and the “AW 96 hrs LC50” value is recorded as “I”. In the test on Boll Weevil, the “BW 48 hrs LC50” value is “I” and the “BW 96 hrs LC50” value is recorded as “I”. The “primary nonagressive Method A crw LC90” value in test [1] is 1.1 ppm.
As for `CCOP(=S)(NCC(C)C)NNP(=S)(OCC)OCC` (centres unmarked) [Compound 71], in the test with Two-Spotted Spider Mite, the “TSM LC50” value is listed as “I”. Moreover, in the test with Green Peach Aphid, the “GPA LC50” value is “I”. Moreover, in the test with Mexican Bean Beetle (setting [2]), the LC50 is 150 µg/mL (≈ 413 µM). In addition, the LC50 with Mexican Bean Beetle (setting [3]) was found to be 150 µg/mL (≈ 413 µM). Besides, in the test with Southern Armyworm, the “AW 48 hrs LC50” value was “I” and the “AW 96 hrs LC50” value is listed as “I”. For the same compound, in the test with Boll Weevil, the “BW 48 hrs LC50” value is given as “I” and the “BW 96 hrs LC50” value is “I”. In test [1], the “primary nonagressive Method A crw LC90” value was 1.1 ppm.
Take `CCOP(=S)(NNP(=S)(OCC)OC(C)C)OC(C)C` (centres unmarked) [Compound 67, reference compound]: the LC50 with Two-Spotted Spider Mite was 150 µg/mL (≈ 412 µM). The “GPA LC50” value in the test with Green Peach Aphid is “I”. For the same compound, the LC50 in the test on Mexican Bean Beetle (setting [2]) stood at 150 µg/mL (≈ 412 µM). Besides, in the test with Mexican Bean Beetle (setting [3]), the LC50 worked out at 62 µg/mL (≈ 170 µM). Further, in the test with Southern Armyworm, the “AW 48 hrs LC50” value is “I” and the “AW 96 hrs LC50” value was “I”. Further, in the test on Boll Weevil, the “BW 48 hrs LC50” value is listed as “I” and the “BW 96 hrs LC50” value is “I”. In addition, in test [1], the “primary nonagressive Method A crw LC90” value was determined as 0.09 ppm.
`CCCOP(=S)(NNP(=S)(OCC)OC(C)(C(F)(F)F)C(F)(F)F)OCC` (centres unmarked) [Compound 70]: the “TSM LC50” value in the test with Two-Spotted Spider Mite was “I”. For the same compound, the “GPA LC50” value with Green Peach Aphid is given as “I”. In the test on Mexican Bean Beetle (setting [2]), the LC50 worked out at 500 µg/mL (≈ 1030 µM). Moreover, in the test with Mexican Bean Beetle (setting [3]), the LC50 was found to be 45 µg/mL (≈ 92.5 µM). Moreover, in the test with Southern Armyworm, the “AW 48 hrs LC50” value is “I” and the “AW 96 hrs LC50” value is reported as “I”. Besides, in the test on Boll Weevil, the “BW 48 hrs LC50” value is “I” and the “BW 96 hrs LC50” value is on record as “I”. In addition, in test [1], the “primary nonagressive Method A crw LC90” value amounted to 1.1 ppm.
Regarding `CCOP(=S)(NNP(=S)(OC(C)C)OC(C)C)OCC(C)C` (centres unmarked) [Compound 83], in the test on Two-Spotted Spider Mite, the “TSM LC50” value was “I”. For the same compound, in the test with Green Peach Aphid, the “GPA LC50” value is listed as “I”. For the same compound, the values for the LC50 in the test with Mexican Bean Beetle (setting [2]) and in the test on Mexican Bean Beetle (setting [3]) were 500 µg/mL (≈ 1270 µM) and 62 µg/mL (≈ 158 µM), respectively. The “AW 48 hrs LC50” value with Southern Armyworm is on record as “I”.
Consider `CCCOP(=S)(NNP(=S)(NCC(C)C)OCC)OCCC` (centres unmarked) [Compound 81], for which the “TSM LC50” value in the test on Two-Spotted Spider Mite is reported as “I”. The “GPA LC50” value with Green Peach Aphid is “I”. Also, the LC50 in the test on Mexican Bean Beetle (setting [2]) was found to be 500 µg/mL (≈ 1280 µM). For the same compound, the LC50 in the test on Mexican Bean Beetle (setting [3]) was determined as 740 µg/mL (≈ 1890 µM). Moreover, in the test with Southern Armyworm, the “AW 48 hrs LC50” value is reported as “I” and the “AW 96 hrs LC50” value is reported as “I”. Moreover, in the test with Boll Weevil, the “BW 48 hrs LC50” value is “I” and the “BW 96 hrs LC50” value is listed as “I”. In addition, the “primary nonagressive Method A crw LC90” value in test [1] turned out to be 1.1 ppm.
`CCCCCOP(=S)(NNP(=S)(OCCC)OCCC)OCC` (centres unmarked) [Compound 79]: the “TSM LC50” value in the test with Two-Spotted Spider Mite is “I”. Also, in the test on Green Peach Aphid, the “GPA LC50” value was “I”. The LC50 in the test on Mexican Bean Beetle (setting [2]) worked out at 380 µg/mL (≈ 935 µM). The LC50 with Mexican Bean Beetle (setting [3]) was 62 µg/mL (≈ 153 µM). Also, in the test with Southern Armyworm, the “AW 48 hrs LC50” value was “I” and the “AW 96 hrs LC50” value is “I”. In the test with Boll Weevil, the “BW 48 hrs LC50” value is “I” and the “BW 96 hrs LC50” value is reported as “I”. In addition, the “primary nonagressive Method A crw LC90” value in test [1] is 1.1 ppm.
